The source of these data is patent US9120728B2, “Modulators of cortical dopaminergic- and NMDA-receptor-mediated glutamatergic neurotransmission” (INTEGRATIVE RESEARCH LABORATORIES SWEDEN AB, priority 2011, dated 2015).

Molecules are shown by their SMILES. Structures can show the parent of a compound that is named as a salt.

In data set [1] the test system is DOPAC (3,4-dihydroxyphenylacetic acid) in the rat striatum. Nature of the data set: Increase of DOPAC (3,4-dihydroxyphenylacetic acid) in the rat striatum after systemic administration. The format is in vivo. Particulars: sc, estimated ED50 on increase of DOPAC in rat striatum, dose range 0-100 μmol/kg s.c., curve fitting. An excerpt: The increased turnover of dopamine in the terminal areas of the ascending dopaminergic projections of the mammalian brain can be illustrated by measuring of changes in biochemical indices in the brain with the characteristic features of dopamine antagonists, e.g. producing increases in concentrations of dopamine metabolites such as 3,4-dihydroxyphenyl-acetic acid (DOPAC) in the striatum.
After the behavioural activity sessions, the rats are decapitated and their brains rapidly taken out and put on an ice-cold petri-dish. The limbic forebrain, the striatum, the frontal cortex and the remaining hemispheral parts of each rat are dissected and frozen. Each brain part is subsequently analyzed with respect to its content of monoamines and their metabolites.
The monoamine transmitter substances (NA (noradrenaline), DA (dopamine), 5-HT (serotonin)) as well as their amine (NM (normethanephrine), 3-MT (3-methoxytyramine)) and acid (DOPAC (3,4-dihydroxyphenylacetic acid), 5-HIAA (5-hydroxyindoleacetic acid), HVA (homovanillic acid)) metabolites are quantified in brain tissue homogenates by HPLC separations and electrochemical detection
The analytical method is based on two chromatographic separations dedicated for amines or acids. Two chromatographic systems share a common auto injector with a 10-port valve and two sample loops for simultaneous injection on the two systems. Both systems are equipped with a reverse phase column (Luna C18(2), dp 3 μm, 50×2 mm i.d., Phenomenex) and electrochemical detection is accomplished at two potentials on glassy carbon electrodes (MF-1000, Bioanalytical Systems, Inc.). The column effluent is passed via a T-connection to the detection cell or to a waste outlet. This is accomplished by two solenoid valves, which block either the waste or detector outlet. By preventing the chromatographic front from reaching the detector, better detection conditions are achieved. The aqueous mobile phase (0.4 ml/min) for the acid system contains citric acid 14 mM, sodium citrate 10 mM, MeOH 15% (v/v) and EDTA 0.1 mM. Detection potentials relative to Ag/AgCl reference are 0.45 and 0.60V. […] Detection potentials relative to Ag/AgCl reference are 0.45 and 0.65V.
ED50 value for the increase of DOPAC in striatum is calculated by curve fitting. The evaluation is based on 40 animals over the dose range 0, 3.7, 11, 33 and 100 μmol/kg s.c. in two combined experiments. The DOPAC levels are normalised to control and fitted by least square minimization to the function “End-(End-Control)/(1+(dose/ED50)^slope)”. The four parameters (Control, End, ED50 and Slope) are fitted with the restrictions: ED50>0, 0.5<Slope<3, 350<End<400% of control. To estimate confidence levels for the parameters, the fit is repeated 100 times with a random evenly distributed squared weight (0 to 1) for every measurement value. Presented ED50-ranges cover 95% of these values.

The test system of a further data set is drug-naive rats. The data set is described as follows: Effects on spontaneous locomotion (locomotor activity in drug-naive rats). The format is in vivo, rat. As to conditions: recorded for 60 minutes immediately after drug administration. On the procedure:
Prior art dopamine receptor antagonists are known to induce profound decrease in locomotor activity (catalepsy).
Behavioural activity is measured using eight Digiscan activity monitors (RXYZM (16) TAO, Omnitech Electronics, Columbus, Ohio, USA), connected to an Omnitech Digiscan analyzer and an Apple Macintosh computer equipped with a digital interface board (NB DIO-24, National Instruments, USA). Each activity monitor consists of a quadratic metal frame (W×L=40 cm×40 cm) equipped with photobeam sensors. During measurements of behavioural activity, a rat is put in a transparent acrylic cage (WxLxH, 40×40×30 cm) which in turn is placed in the activity monitor. Each activity monitor is equipped with three rows of infrared photobeam sensors, each row consisting of 16 sensors. Two rows are placed along the front and the side of the floor of the cage, at a 90° angle, and the third row is placed 10 cm above the floor to measure vertical activity. Photobeam sensors are spaced 2.5 cm apart. Each activity monitor is fitted in an identical sound and light attenuating box containing a weak house light and a fan.
The computer software is written using object oriented programming (LabVIEW®, National instruments, Austin, Tex., USA).
Behavioural data from each activity monitor, representing the position (horizontal center of gravity and vertical activity) of the animal at each time, are recorded at a sampling frequency of 25 Hz and collected using a custom written LABView™ application. The data from each recording session are stored and analyzed with respect to distance traveled. Each behavioural recording session lasts 60 min, starting approximately 4 min after the injection of test compound. Similar behavioural recording procedures are applied for drug-naïve and drug pre-treated rats. Rats pre-treated with d-amphetamine are given a dose of 1.5 mg/kg i.p. 10 min before the recording session in the activity monitor. Rats pre-treated with MK-801 are given a dose of 0.7 mg/kg i.p. 90 min before the recording session in the activity monitor. The results are presented as counts/60 minutes, or counts/30 minutes, in arbitrary length units. Statistical comparisons are carried out using Student's t-test against the control group. In MK-801 or amphetamine pre-treated animals, statistical comparisons are made against the MK801 or d-amphetamine controls, respectively.

Data set [2] deals with d-amphetamine pre-treated rats. Nature of the data set: Reduction of amphetamine-induced hyper-locomotion. The format is in vivo. Particulars: Rattus norvegicus; rats pre-treated with d-amphetamine 1.5 mg/kg i.p.; test compound 0-100 μmol/kg s.c.; distance during last 45 minutes of one hour. An excerpt:
The increase in activity after treatment with d-amphetamine is a standard model of hyperdopaminergia. In this model, dopaminergic neurotransmission is increased by systemic administration of d-amphetamine at a dose that is sufficiently high to produce a large increase in locomotor activity. The ability of a compound to antagonize this hyperactivity reflects anti-dopaminergic properties. Furthermore, antagonism of d-amphetamine induced hyperactivity is widely used as a standard assay of antipsychotic activity (see Psychopharmacology 4th Generation of progress Chapter 68, p 793-795).
Behavioural activity is measured using eight Digiscan activity monitors (RXYZM (16) TAO, Omnitech Electronics, Columbus, Ohio, USA), connected to an Omnitech Digiscan analyzer and an Apple Macintosh computer equipped with a digital interface board (NB DIO-24, National Instruments, USA). […]
Behavioural data from each activity monitor, representing the position (horizontal center of gravity and vertical activity) of the animal at each time, are recorded at a sampling frequency of 25 Hz and collected using a custom written LABView™ application. The data from each recording session are stored and analyzed with respect to distance traveled. […]
ED50 value for reduction of amphetamine-induced hyper-locomotion is calculated by curve fitting. […]

The term melting point denotes the temperature of the solid-liquid transition. One may read the ED50 as the dose that gives a 50% effect, or the effect in half of the subjects.

`CS(=O)(=O)c1cc(F)cc(OCCN2CCCCC2)c1` (as salt: hydrochloric acid salt) [Example 10, 1-[2-(3-fluoro-5-methylsulfonyl-phenoxy)ethyl]piperidine] yielded a melting point of 194.6 °C.
On the same count and under the same terms, the figure for `CS(=O)(=O)c1cc(F)cc(OCCNC2CCCC2)c1` (as salt: hydrochloric acid salt) [Example 6, N-[2-(3-fluoro-5-methylsulfonyl-phenoxy)ethyl]cyclopentanamine] is 207.5 °C; for `CCNCCOc1cc(F)cc(S(C)(=O)=O)c1` (as salt: hydrochloric acid salt) [Example 3, N-ethyl-2-(3-fluoro-5-methylsulfonyl-phenoxy)ethanamine] it is 200.8 to 201.1 °C; for `CCCNCCOc1cc(Cl)cc(S(C)(=O)=O)c1` (as salt: hydrochloric acid salt) [Example 12, N-[2-(3-chloro-5-methylsulfonyl-phenoxy)ethyl]propan-1-amine] it is 195 to 197 °C.
`CCN(CC)CCOc1cc(F)cc(S(C)(=O)=O)c1` (as salt: hydrochloric acid salt) [Example 11, N,N-diethyl-2-(3-fluoro-5-methylsulfonyl-phenoxy)ethanamine] returned a melting point of 172.3 °C.
`CCC(C)(C)NCCOc1cc(F)cc(S(C)(=O)=O)c1` (as salt: hydrochloric acid salt) [Example 7, N-[2-(3-fluoro-5-methylsulfonyl-phenoxy)ethyl]-2-methyl-butan-2-amine] came in with a melting point of 190.2 °C.
Still for that read-out and setting: the figure for `CS(=O)(=O)c1cc(F)cc(OCCNC2CCC2)c1` (as salt: hydrochloric acid salt) [Example 8, N-[2-(3-fluoro-5-methylsulfonyl-phenoxy)ethyl]cyclobutanamine] is 202 °C.
For `CCCNCCOc1cc(Cl)cc(S(C)(=O)=O)c1` [Example 12, N-[2-(3-chloro-5-methylsulfonyl-phenoxy)ethyl]propan-1-amine], in data set [1], the ED50 is 10.5 µmol/kg. The Locomotor activity is given as 14414 counts/60 min in the data set with drug-naive rats (3.7 μmol/kg), 12740 counts/60 min in the data set with drug-naive rats (11 μmol/kg) and 7826 counts/60 min in the data set with drug-naive rats (33 μmol/kg).
Turning to `CCCN(C)CCOc1cc(F)cc(S(C)(=O)=O)c1` [Example 4, N-[2-(3-fluoro-5-methylsulfonyl-phenoxy)ethyl]-N-methyl-propan-1-amine], the results for the ED50 in data set [1] and in data set [2] were 28.1 µmol/kg and 69 µmol/kg, respectively. Also, the values for the Locomotor activity in the data set with drug-naive rats (3.7 μmol/kg), in the data set on drug-naive rats (11 μmol/kg) and with drug-naive rats (33 μmol/kg) were 11435 counts/60 min, 10025 counts/60 min and 12829 counts/60 min, respectively.
On to `CCCN(C)CCOc1cc(F)cc(S(C)(=O)=O)c1` (as salt: hydrochloric acid salt) [Example 4, N-[2-(3-fluoro-5-methylsulfonyl-phenoxy)ethyl]-N-methyl-propan-1-amine], for which the melting point is 128 to 130 °C.
For `CS(=O)(=O)c1cc(F)cc(OCCN2CCCCC2)c1` [Example 10, 1-[2-(3-fluoro-5-methylsulfonyl-phenoxy)ethyl]piperidine], the ED50 in data set [1] is 14.5 µmol/kg. The Locomotor activity turned out to be 11979 counts/60 min with drug-naive rats (3.7 μmol/kg), 9344 counts/60 min in the data set with drug-naive rats (11 μmol/kg) and 8144 counts/60 min with drug-naive rats (33 μmol/kg).
The corresponding values for `CCCCNCCOc1cc(F)cc(S(C)(=O)=O)c1` [Example 2, N-[2-(3-fluoro-5-methylsulfonyl-phenoxy)ethyl]butan-1-amine] are 4.2 µmol/kg, 13941 counts/60 min, 8617 counts/60 min and 6325 counts/60 min.
For `CC(C)NCCOc1cc(F)cc(S(C)(=O)=O)c1` (as salt: hydrochloric acid salt) [Example 9, N-[2-(3-fluoro-5-methylsulfonyl-phenoxy)ethyl]propan-2-amine], the melting point was 173 °C.
Compound `CCCCNCCOc1cc(F)cc(S(C)(=O)=O)c1` (as salt: hydrochloric acid salt) [Example 2, N-[2-(3-fluoro-5-methylsulfonyl-phenoxy)ethyl]butan-1-amine] registered a melting point of 204 °C.
With `CCC(C)NCCOc1cc(F)cc(S(C)(=O)=O)c1` (stereo not shown) (as salt: hydrochloric acid salt) [Example 5, N-[2-(3-fluoro-5-methylsulfonyl-phenoxy)ethyl]butan-2-amine], the melting point turned out to be 166.5 °C.
